pIC50: −log10 of the molar value.
target: hDGAT2 (Homo sapiens (Human), UniProt Q96PD7); test: DGAT2 Enzymatic Activity Assay; format: biochemical; settings: hDGAT2 Sf-9 membrane prep; 25 μM diolein, 10 μM oleoyl-CoA; triolein product by LC/MS/MS; read-out: IC50 values for inhibition of DGAT2
Procedure, shortened: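 Membranes from Sf-9 cells expressing untagged hDGAT2 (10 ng/μL) incubated at room temperature with 25 μM diolein and 10 μM oleoyl-CoA in 100 mM Tris pH 7.0, 20 mM MgCl2, 5% ethanol. Triolein product quantified by LC/MS/MS against spiked internal standard; IC50 from 4-parameter sigmoidal fit.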

Sequence of hDGAT2 (Q96PD7 whole entry): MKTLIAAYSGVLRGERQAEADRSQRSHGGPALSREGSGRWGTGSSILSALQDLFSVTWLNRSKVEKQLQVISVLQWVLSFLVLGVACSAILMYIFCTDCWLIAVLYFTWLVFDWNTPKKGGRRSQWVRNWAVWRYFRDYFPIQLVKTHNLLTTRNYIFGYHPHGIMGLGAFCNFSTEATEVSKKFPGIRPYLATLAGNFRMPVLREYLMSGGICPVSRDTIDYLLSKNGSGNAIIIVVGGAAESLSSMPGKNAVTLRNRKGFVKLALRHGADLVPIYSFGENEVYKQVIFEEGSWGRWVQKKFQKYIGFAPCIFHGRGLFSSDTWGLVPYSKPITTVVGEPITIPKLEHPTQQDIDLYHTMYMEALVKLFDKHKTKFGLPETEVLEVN

| pIC50 | Structure (SMILES) |
| --- | --- |
| 6.18 | CCN(CC)C(=O)CN1CCc2c(-c3cccc(OC(F)(F)F)c3)ccc(CNC(=O)C3CC3c3nc(C)no3)c2C1 (centres unmarked) [Example 81, N-((2-(2-(diethylamino)-2-oxoethyl)-5-(3-(trifluoromethoxy)phenyl)-1,2,3,4-tetrahydroisoquinolin-8-yl)methyl)-2-(3-methyl-1,2,4-oxadiazol-5-yl)cyclopropanecarboxamide] |
| 6.78 | CC(C)(C)NC(=O)N1CCc2c(-c3cncc(C(C)(C)O)c3)ccc(CNC(=O)[C@@H]3C[C@H]3c3ccccc3)c2C1 (relative stereo) [Example 10, N-(tert-butyl)-5-(5-(2-hydroxypropan-2-yl)pyridin-3-yl)-8-(((trans)-2-phenylcyclopropanecarboxamido)methyl)-3,4-dihydroisoquinoline-2(1H)-carboxamide] |
| 6.62 | COc1cccc(-c2ccc(CNC(=O)[C@@H]3C[C@H]3c3ccccc3)c3c2CCN(C(=O)Nc2cccnc2)C3)c1 (relative stereo) [Example 24, 5-(3-methoxyphenyl)-8-(((trans)-2-phenylcyclopropanecarboxamido)methyl)-N-(pyridin-3-yl)-3,4-dihydroisoquinoline-2(1H)-carboxamide] |
| 5.93 | CC(C)(C)NC(=O)N1CCc2c(-c3cnn(-c4ccccc4)c3)ccc(CNC(=O)[C@@H]3C[C@H]3c3ccccc3)c2C1 (relative stereo) [Example 35, N-(tert-butyl)-5-(1-phenyl-1H-pyrazol-4-yl)-8-(((trans)-2-phenylcyclopropanecarboxamido)methyl)-3,4-dihydroisoquinoline-2(1H)-carboxamide] |
| 7.28 | Cc1noc([C@@H]2C[C@H]2C(=O)NCc2ccc(-c3cccc(OC(F)(F)F)c3)c3c2CN(C(=O)NC2COC2)CC3)n1 (relative stereo) [Example 73, 8-(((trans)-2-(3-methyl-1,2,4-oxadiazol-5-yl)cyclopropanecarboxamido)methyl)-N-(oxetan-3-yl)-5-(3-(trifluoromethoxy)phenyl)-3,4-dihydroisoquinoline-2(1H)-carboxamide] |
| 5.58 | CC(C)(C)NC(=O)N1CCc2c(-c3ccc4c(c3)CNC4=O)ccc(CNC(=O)[C@@H]3C[C@H]3c3ccccc3)c2C1 (relative stereo) [Example 45, N-(tert-butyl)-5-(1-oxoisoindolin-5-yl)-8-(((trans)-2-phenylcyclopropanecarboxamido)methyl)-3,4-dihydroisoquinoline-2(1H)-carboxamide] |
| 8.21 | COc1cccc(-c2ccc(CNC(=O)C3CC3c3cccnc3)c3c2CCN(C(=O)NC(C)(C)C)C3)c1 (centres unmarked) [Example 13, N-(tert-butyl)-5-(3-methoxyphenyl)-8-((2-(pyridin-3-yl)cyclopropanecarboxamido)methyl)-3,4-dihydroisoquinoline-2(1H)-carboxamide] |
| 5.13 | CC(C)(C)NC(=O)N1CCc2c(-c3cccc4c3CNC4=O)ccc(CNC(=O)[C@@H]3C[C@H]3c3ccccc3)c2C1 (relative stereo) [Example 44, N-(tert-butyl)-5-(1-oxoisoindolin-4-yl)-8-(((trans)-2-phenylcyclopropanecarboxamido)methyl)-3,4-dihydroisoquinoline-2(1H)-carboxamide] |
| 5.74 | COC(=O)c1cccc(-c2ccc(CNC(=O)C3CC3c3ccccc3)c3c2CCN(C(=O)CC(F)(F)F)C3)c1 (centres unmarked) [Example 129, methyl 3-(8-((2-phenylcyclopropanecarboxamido)methyl)-2-(3,3,3-trifluoropropanoyl)-1,2,3,4-tetrahydroisoquinolin-5-yl)benzoate] |
| 5.92 | COc1cccc(-c2ccc(CNC(=O)C3CC3c3ccccc3)c3c2CCN(CC(F)(F)F)C3)c1 (centres unmarked) [Example 93, N-((5-(3-methoxyphenyl)-2-(2,2,2-trifluoroethyl)-1,2,3,4-tetrahydroisoquinolin-8-yl)methyl)-2-phenylcyclopropanecarboxamide] |
| 5.26 | COC(=O)c1cccc(-c2ccc(CNC(=O)C3CC3c3ccccc3)c3c2CCN(C(=O)c2cccc(-n4cccc4)c2)C3)c1 (centres unmarked) [Example 124, methyl 3-(2-(3-(1H-pyrrol-1-yl)benzoyl)-8-((2-phenylcyclopropanecarboxamido)methyl)-1,2,3,4-tetrahydroisoquinolin-5-yl)benzoate] |
| 5.57 | COC(=O)c1cccc(-c2ccc(CNC(=O)C3CC3c3ccccc3)c3c2CCN(Cc2ccc(F)cc2)C3)c1 (centres unmarked) [Example 98, methyl 3-(2-(4-fluorobenzyl)-8-((2-phenylcyclopropanecarboxamido)methyl)-1,2,3,4-tetrahydroisoquinolin-5-yl)benzoate] |
| 5.91 | COC(=O)c1cccc(-c2ccc(CNC(=O)C3CC3c3ccccc3)c3c2CCN(C(=O)CCC(F)(F)F)C3)c1 (centres unmarked) [Example 127, methyl 3-(8-((2-phenylcyclopropanecarboxamido)methyl)-2-(4,4,4-trifluorobutanoyl)-1,2,3,4-tetrahydroisoquinolin-5-yl)benzoate] |
| 8.03 | CC(C)(C)NC(=O)N1CCc2c(-c3cccc(-n4cncn4)c3)ccc(CNC(=O)[C@@H]3C[C@H]3c3ccccc3)c2C1 (relative stereo) [Example 50, 5-(3-(1H-1,2,4-triazol-1-yl)phenyl)-N-(tert-butyl)-8-(((trans)-2-phenylcyclopropanecarboxamido)methyl)-3,4-dihydroisoquinoline-2(1H)-carboxamide] |
| 6.14 | Cc1noc(C2CC2C(=O)NCc2ccc(-c3cccc(OC(F)(F)F)c3)c3c2CN(CC(=O)NC2CC2)CC3)n1 (centres unmarked) [Example 82, N-((2-(2-(cyclopropylamino)-2-oxoethyl)-5-(3-(trifluoromethoxy)phenyl)-1,2,3,4-tetrahydroisoquinolin-8-yl)methyl)-2-(3-methyl-1,2,4-oxadiazol-5-yl)cyclopropanecarboxamide] |
| 8.01 | COC(=O)c1cccc(-c2ccc(CNC(=O)C3CC3c3ccccc3)c3c2CCN(C(=O)NC2CC(F)(F)C2)C3)c1 (centres unmarked) [Example 56, methyl 3-(2-((3,3-difluorocyclobutyl)carbamoyl)-8-((2-phenylcyclopropanecarboxamido)methyl)-1,2,3,4-tetrahydroisoquinolin-5-yl) benzoate] |
| 5.37 | COc1cccc(-c2ccc(CNC(=O)[C@@H]3C[C@H]3c3ccccc3)c3c2CCN(C(=O)NCCCC(=O)O)C3)c1 (relative stereo) [Example 64, 4-(5-(3-methoxyphenyl)-8-(((trans)-2-phenylcyclopropanecarboxamido)methyl)-1,2,3,4-tetrahydroisoquinoline-2-carboxamido)butanoic acid] |
| 6.55 | COC(=O)c1cccc(-c2ccc(CNC(=O)C3CC3c3ccccc3)c3c2CCN(C(=O)c2ccc(F)cc2)C3)c1 (centres unmarked) [Example 141, methyl 3-(2-(4-fluorobenzoyl)-8-((2-phenylcyclopropanecarboxamido)methyl)-1,2,3,4-tetrahydroisoquinolin-5-yl)benzoate] |
| 5.75 | COCCC(=O)N1CCc2c(-c3cccc(C(=O)OC)c3)ccc(CNC(=O)C3CC3c3ccccc3)c2C1 (centres unmarked) [Example 126, methyl 3-(2-(3-methoxypropanoyl)-8-((2-phenylcyclopropanecarboxamido)methyl)-1,2,3,4-tetrahydroisoquinolin-5-yl)benzoate] |
| 6.84 | COc1cccc(-c2ccc(CNC(=O)[C@@H]3C[C@H]3c3nc(C)no3)c3c2CCN(C(=O)Nc2ccon2)C3)c1 (relative stereo) [Example 25, N-(isoxazol-3-yl)-5-(3-methoxyphenyl)-8-(((trans)-2-(3-methyl-1,2,4-oxadiazol-5-yl)cyclopropanecarboxamido)methyl)-3,4-dihydroisoquinoline-2(1H)-carboxamide] |
| 5.38 | Cc1noc(C2CC2C(=O)NCc2ccc(-c3cccc(OC(F)(F)F)c3)c3c2CN(CC(=O)NC2CCC2)CC3)n1 (centres unmarked) [Example 87, N-((2-(2-(cyclobutylamino)-2-oxoethyl)-5-(3-(trifluoromethoxy)phenyl)-1,2,3,4-tetrahydroisoquinolin-8-yl)methyl)-2-(3-methyl-1,2,4-oxadiazol-5-yl)cyclopropanecarboxamide] |
| 6.32 | Cc1noc(C2CC2C(=O)NCc2ccc(-c3cccc(OC(F)(F)F)c3)c3c2CN(CC(=O)NC(C)(C)C)CC3)n1 (centres unmarked) [Example 80, N-((2-(2-(tert-butylamino)-2-oxoethyl)-5-(3-(trifluoromethoxy)phenyl)-1,2,3,4-tetrahydroisoquinolin-8-yl)methyl)-2-(3-methyl-1,2,4-oxadiazol-5-yl)cyclopropanecarboxamide] |
| 6.75 | COC(=O)c1cccc(-c2ccc(CNC(=O)C3CC3c3ccccc3)c3c2CCN(C(=O)c2ccccc2)C3)c1 (centres unmarked) [Example 138, methyl 3-(2-benzoyl-8-((2-phenylcyclopropanecarboxamido)methyl)-1,2,3,4-tetrahydroisoquinolin-5-yl)benzoate] |
| 5.84 | CC(C)(C)NC(=O)N1CCc2c(-c3cccc(C(=O)NC4CC4)c3)ccc(CNC(=O)[C@@H]3C[C@H]3c3ccccc3)c2C1 (relative stereo) [Example 38, N-(tert-butyl)-5-(3-(cyclopropylcarbamoyl)phenyl)-8-(((trans)-2-phenylcyclopropanecarboxamido)methyl)-3,4-dihydroisoquinoline-2(1H)-carboxamide] |
| 5.81 | COc1ccc(CNC(=O)CN2CCc3c(-c4cccc(OC(F)(F)F)c4)ccc(CNC(=O)C4CC4c4nc(C)no4)c3C2)c(OC)c1 (centres unmarked) [Example 85, N-((2-(2-((2,4-dimethoxybenzyl)amino)-2-oxoethyl)-5-(3-(trifluoromethoxy)phenyl)-1,2,3,4-tetrahydroisoquinolin-8-yl)methyl)-2-(3-methyl-1,2,4-oxadiazol-5-yl)cyclopropanecarboxamide] |

| Structure (SMILES) | pIC50 |
| --- | --- |
| CCCNC(=O)N1CCc2c(-c3cccc(OC)c3)ccc(CNC(=O)[C@@H]3C[C@H]3c3ccccc3)c2C1 (relative stereo) [Example 70] | 7.69 |

From patent US10568876B2, “Tetrahydroisoquinoline derivatives useful as inhibitors of diacylglyceride O-acyltransferase 2” (Merck Sharp & Dohme Corp., priority 2014, dated 2020)
